This is an account of results in patent US20220024970A1, “COMPOUNDS WITH HIV MATURATION INHIBITORY ACTIVITY” (VIIV HEALTHCARE UK (NO. 4) LIMITED, priority 2018, published 2022).

Counter-ions that a name gives are not always drawn.

Common to all, as to assay type: physicochemical
Series [1] can be described thus: Thermal behaviour during heating (DSC). As to the method: Differential Scanning calorimetry (DSC) data were acquired on a TA Instruments Q20 DSC. The method parameters were: Heat Program: 30° C. to 300° C. using a 10° C. per minute heating rate, under a nitrogen gas flow.
Series [2] can be described thus: Water vapor sorption (DVS) at 25° C. As to the method:
Water vapor sorption experiments were performed using a Surface Measurement System DVS Advantage at 25° C. The Bis-HCl salt of Compound A reversibly absorbed approximately 7% weight per weight of water between 0% and 90% relative humidity at 25° C. […] Upon desorption the conversions were reversible. The Form 1 crystalline mesylate salt of Compound A reversibly absorbed approximately 1.6% weight per weight of water between 0% and 90% relative humidity at 25° C.

Series [3] is described as follows: Solubility in simulated intestinal fluids at controlled ambient room temperature. The settings on record: for Solubility in FaSSIF and FeSSIF (in words): mesylate compared to the bis-HCl salt.
Setting [4] is: Fasted State Simulated Intestinal Fluid (FaSSif) pH 6.5, controlled ambient room temperature.
Where [5] appears, read: Fed State Simulated Intestinal Fluid (FeSSif) pH 6.5, controlled ambient room temperature.

As for `C=C(C)[C@@H]1CC[C@]2(NCCN3CCS(=O)(=O)CC3)CC[C@]3(C)[C@H](CC[C@@H]4[C@@]5(C)CC=C(C6=CC[C@@](CF)(C(=O)O)CC6)C(C)(C)[C@@H]5CC[C@]43C)[C@@H]12` [Form 1 of Mesylate salt of Compound A], the “Thermal loss of counter-ion during heating” value in series [1] is “does not show this behavior”. The “Solid form change upon moisture sorption” value in series [2] (ambient humidity conditions) was “no significant form change”. For the same compound, the Water reversibly absorbed result in series [2] (between 0% and 90% relative humidity at 25° C.) is on record as “approximately 1.6 % weight per weight”. In addition, the “Hygroscopicity (in words)” value in series [2] (compared to the bis-HCl salt, ambient humidity conditions) was “lower hygroscopicity”. In addition, in series [3] (listed as Form 1 of the mesylate salt of Compound A), the “Solubility in FaSSIF and FeSSIF (in words)” value is recorded as “greater solubility”. Also, the “Solubility of Specified Version” value was 100 µg/mL in series [3] (setting [4]) and 600 µg/mL in series [3] (setting [5]).
Turning to `C=C(C)[C@@H]1CC[C@]2(NCCN3CCS(=O)(=O)CC3)CC[C@]3(C)[C@H](CC[C@@H]4[C@@]5(C)CC=C(C6=CC[C@@](CF)(C(=O)O)CC6)C(C)(C)[C@@H]5CC[C@]43C)[C@@H]12` [Parent Compound A, (1R)-4-[(1R,3aS,5aR,5bR,7aR,11aS,11bR,13aR,13bR)-3a-{[2-(1,1-dioxido-4-thiomorpholinyl)ethyl]amino}-5a,5b,8,8,11a-pentamethyl-1-(1-propen-2-yl)-2,3,3a,4,5,5a,5b,6,7,7a,8,11,11a,11b,12,13,13a,13b-octadecahydro-1H-cyclopenta[a]chrysen-9-yl]-1-(fluoromethyl)-3-cyclohexene-1-carboxylic acid], the “Solubility in FaSSIF and FeSSIF (in words)” value in series [3] (listed as parent free base of Compound A) is reported as “poor solubility”. For the same compound, the “Solubility of Specified Version” value in series [3] (setting [4]) and in series [3] (setting [5]) was “Less than 0.001 mg/mL” throughout.
